# Values joined by “and” are separate entries in the source; they are usually repeats but may differ in a detail not shown here. Identical values can stand only once. “Also recorded” adds a separate entry of the source. Like-named read-outs stand apart in the source and are kept apart here.
# Legend:
# F. nucleatum 23726 [1] = assay: MIC against F. nucleatum 23726; format: cell-based, Fusobacterium nucleatum; details: Fusobacterium nucleatum, 23726, F. nucleatum 23726 wild-type; three biological replicates; read-out: MIC Fn 23726
# Protocol: (§1) Compounds were twofold serially diluted (100–0.2 μg/mL) across a 96-well plate in 100 μL of media used for the specific organism (Table S4). For anaerobes, plates were incubated anaerobically at 37 °C for 1 h and then inoculated with approximately 10^5 to 10^6 CFU/well. Plates were incubated at 37 °C for up to 48 h, and MICs were read by visual inspection.
# E. faecalis FA2–2ΔfabK = assay: MIC against E. faecalis FA2-2 fabI+ (ΔfabK, possesses only FabI); format: cell-based, Enterococcus faecalis
# Protocol: as §1
# [2] = system: F. nucleatum 23726 overexpression strains; assay: MIC against F. nucleatum 23726 transformed with empty vector, fabK or fabX under ATc-inducible promoter; format: cell-based, Fusobacterium nucleatum; details: for MIC: Fusobacterium nucleatum
# Protocol: (§2) The transformation of F. nucleatum 23726 was performed via electroporation as previously described,[41] except that Columbia broth was used. (i) Antisense vector: F. nucleatum gene silencing vector, pHFK2, was developed by inserting the ATc inducible paired-termini antisense sequences from the clostridial vector pMSPT into pCWU6, a F. nucleatum vector.[56] pCWU6 was amplified by PCR (CloneAmp polymerase) and recombined with the BamHI and KpnI fragments of pMSPT containing the Tet promoter and paired-termini sequences.[26] Antisense nucleotides targeting either 50 bp upstream and downstream of the fabK start codon (FabKAS1) or 25 bp upstream and 75 bp downstream (FabKAS2) were cloned into SphI and XhoI restriction sites of pHFK2. (ii) Complementation vectors: these were generated by PCR amplifying the fabK promoter and gene and introducing KpnI and HindIII restriction sites at 5′ and 3′ ends, respectively. Purified PCR amplicons were inserted into the KpnI and HindIII sites of pCWU6. (iii) Overexpression vectors: the corresponding gene, fabK or fabX, was amplified via PCR, introducing HindIII or SacI restriction sites to the 5′ end, respectively. BamHI restriction sites were introduced to the 3′ end of both. Purified PCR amplicons were inserted into the respective restriction sites of pHFK2. (iv) Allelic exchange vector: vector, pCWU8-FabK, was generated using a previously described protocol,[41],[56] whereby 1-kb regions upstream and downstream of fabK were cloned into the suicide vector pCWU8 using a Gibson Assembly Cloning Kit (New England Biolabs). The recombinant vector was transformed into strain F. nucleatum 23726ΔgalK, and successful integrants were collected that were resistant to thiamphenicol (5 μg/mL). Since the suicide vector expresses GalK, which is toxic in the presence of 2-deoxy-D-galactose (2-DG), the compound 2-DG (0.25% w/v) was added to counter-select for mutants that underwent a second homologous recombination. Ten resulting colonies were then tested for deletion of fabK via PCR, using primers in Table S7. The experiment was independently performed twice for a total of 20 colonies screened for fabK deletion. All experiments were done anaerobically at 37 °C in tryptic soy broth supplemented with 1% w/v peptone and 0.25% w/v autoclaved L-cysteine hydrochloride (TSPC) or TSPC agar with thiamphenicol or 2-DG.
# as §1
# [3] = system: F. nucleatum 23726 mutants JR1-JR4; assay: MIC against 681-resistant mutants of F. nucleatum 23726; format: cell-based, Fusobacterium nucleatum; details: for MIC: Fusobacterium nucleatum
# Protocol: as §1
# Overnight cultures of F. nucleatum 23726 were diluted 1:50 in fresh Columbia broth, which was used to inoculate 96-well plates containing twofold serial dilutions of compound 681. After 48 h of incubation, cultures were recovered from wells one dilution below the MIC, and this was used to establish the inocula for the subsequent passage into 96-well plates containing 681. This process was repeated until cultures grew at 8× the original MIC for two consecutive passages. Cultures were then plated onto Columbia blood agar plates and incubated for 72 h at 37 °C. Single colonies were collected into Columbia broth with 0.39 μg/mL of 681 and cultured for up to 48 h and then plated onto selective Columbia blood agar plates to further purify putative 681-resistant colonies.
# [4] = system: F. nucleatum 23726 complementation strains; assay: MIC against F. nucleatum 23726 carrying FabK alanine-132 or threonine-132 under the wild-type fabK promoter; format: cell-based; details: Fusobacterium nucleatum
# Protocol: as §2, with “Since the suicide vector expresses GalK, which is toxic in the presence of 2-deoxy-D-galactose (2-DG), the compound 2-DG (0.25% w/v) was added to counter-select for mutants that underwent a second homologous recombination. Ten resulting colonies were then tested for deletion of fabK via PCR, using primers in Table S7. The experiment was independently performed twice for a total of 20 colonies screened for fabK deletion. All experiments were done anaerobically at 37 °C in tryptic soy broth supplemented with 1% w/v peptone and 0.25% w/v autoclaved L-cysteine hydrochloride (TSPC) or TSPC agar with thiamphenicol or 2-DG.” left out
# Compounds were twofold serially diluted (100–0.2 μg/mL) across a 96-well plate in 100 μL of media used for the specific organism (Table S4). […] Plates were incubated at 37 °C for up to 48 h, and MICs were read by visual inspection.
# Actinomyces F0386 = assay: MIC, digestive tract panel; format: cell-based; details: Type I FAS
# Protocol: as §1
# F. necrophorum 25286 = assay: MIC, digestive tract panel; format: cell-based; details: Fusobacterium necrophorum, ENR FabK
# Protocol: as §1
# F. nucleatum 25586 = assay: MIC, digestive tract panel; format: cell-based; details: Fusobacterium nucleatum, ENR FabK
# Protocol: as §1
# Prevotella denticola = assay: MIC, digestive tract panel; format: cell-based; details: ENR FabI
# Protocol: as §1
# Streptococcus mitis = assay: MIC, digestive tract panel; format: cell-based; details: ENR FabK
# Protocol: as §1
# Streptococci = assay: MIC, all tested Streptococci; format: cell-based; details: text summary of Table 4; read-out: MICs against all tested Streptococci
# Protocol: as §1
# [5] = Cytotoxicity against Vero cells (resazurin viability); format: cell-based; details: monkey, Vero epithelial cells, maximum tested concentration 100 μg/mL
# Protocol: This was done as described[36] using colorectal carcinoma HCT116 and Vero epithelial cells cultured at 37 °C in 5% CO2 in Dulbecco’s modified Eagle’s medium (DMEM) with 4.5 g/L glucose and L-glutamine. The medium was supplemented with 10% v/v FetalGro (Rocky Mountain Biologicals). Approximately 25,000/well were aliquoted into black 96-well plates (Greiner Bio-One) and incubated overnight, before being resuspended in DMEM supplemented with 20% Gibco KnockOut Serum Replacement (Thermo Fisher Scientific). Compounds (100–1.6 μg/mL) were then added to the cells and incubated for 24 h at 37 °C and 5% CO2. Cell viability was analyzed using resazurin as described.[36]
# F. nucleatum 23726 [6] = assay: Growth in FAS-II inhibitor with or without exogenous fatty acids; format: cell-based, Fusobacterium nucleatum; details: fatty acid mixture of Table S2
# Protocol: (§3) To plates containing twofold serial dilutions of compounds, exponential phase cultures were added to a final OD600nm of 0.1. Plates containing F. nucleatum in Columbia broth were incubated at 37 °C inside of a Tecan Infinite 200 Pro, which was inside an anaerobic chamber; growth kinetics for Streptococcus spp. in brain heart infusion broth were done aerobically in the same Tecan instrument.
# S. pyogenes 19615 = assay: as above; format: cell-based, Streptococcus pyogenes; details: fatty acid mixture of Table S2
# Protocol: as §3
# S. salivarius HM-121 = assay: as above; format: cell-based, Streptococcus salivarius; details: fatty acid mixture of Table S2
# Protocol: as §3
smiles,measurement,setting,value
"CS(=O)(=O)c1ccc2nc(NC(=O)NCc3nc(-c4ccc(Br)cc4)c[nH]3)sc2c1 [Compound 681, 1-((4-(4-bromophenyl)-1H-imidazole-2-yl)methyl)-3-(6-(methylsulfonyl)benzo[d]thiazol-2-yl)urea]",MIC,F. nucleatum 23726 [1],0.4 µg/mL
same,MIC Ef fabI+,"E. faecalis FA2–2ΔfabK; E. faecalis FA2-2 ΔfabK, possesses only FabI",100 µg/mL and >100 µg/mL
same,MIC,"E. faecalis FA2–2ΔfabK; Enterococcus faecalis, read-out: MIC Ef fabI+, E. faecalis FA2-2 ΔfabK, possesses only FabI",> 100 µg/mL
same,"MIC, FabK overexpression, induced","[2]; F. nucleatum 23726 pTET-fabK, 62.5 ng/mL ATc",>100 µg/mL
same,MIC,"[2]; read-out: MIC, FabK overexpression, induced",> 100 µg/mL
same,MIC,"[2]; read-out: MIC, FabK overexpression, uninduced",0.8 µg/mL
same,MIC,"[2]; read-out: MIC, FabX overexpression, induced",3.1 µg/mL
same,MIC,"[2]; read-out: MIC, FabX overexpression, uninduced",0.8 µg/mL
same,MIC,"[2]; read-out: MIC, empty vector, induced",0.4 µg/mL
same,MIC,"[2]; read-out: MIC, empty vector, uninduced",0.8 µg/mL
same,MIC against mutant JR2,[3]; 12 bp deletion upstream of fabX,3.1 µg/mL
same,MIC,[3]; read-out: MIC against mutant JR2,6.3 µg/mL
same,MIC,[3]; read-out: MICs against mutants JR1-JR4,3.1 to 12.5 µg/mL
same,MIC against mutant JR3,[3]; fabK TSS + 1: C > T,3.1 µg/mL
same,MIC,"[4]; read-out: MIC, empty vector control",0.6 µg/mL
same,MIC,"[4]; read-out: MIC, threonine-132 FabK mutant",2.5 to 5 µg/mL
same,MIC,"[4]; read-out: MIC, wild-type FabK (alanine-132)",1.3 µg/mL
same,MIC,Actinomyces F0386,> 100 µg/mL
same,MIC,F. necrophorum 25286,6.3 to 12.5 µg/mL
same,MIC,F. nucleatum 25586,0.8 µg/mL
same,MIC,Prevotella denticola,> 100 µg/mL
same,MIC,Streptococcus mitis,< 1.6 µg/mL
same,MIC,Streptococci,< 1.6 µg/mL
same,IC50 at 24 h,[5],> 100 µg/mL
same,Effect of exogenous fatty acids on growth inhibition of F. nucleatum,F. nucleatum 23726 [6],did not attenuate; also recorded: did not rescue
same,Increase in biomass (OD600nm) in the presence of inhibitor and exogenous fatty acids,S. pyogenes 19615,4–5 fold
same,Increase in biomass (OD600nm) in the presence of inhibitor and exogenous fatty acids,S. salivarius HM-121,twofold
